Our source for the IC50 values is patent publication US20260347347A1, “2-AZA-AND 2-OXABICYCLO[2.1.1]HEXANE DERIVATIVES AS FACTOR XIIA ENZYME INHIBITORS” (KALVISTA PHARMACEUTICALS LIMITED, priority 2022, published 2026).

Usually IC50 stands for the midpoint of a concentration-inhibition curve.

This assay has as its target T1, Human Factor XIIa (Homo sapiens, UniProt P00748).
T1 construct: purchased Enzyme Research Laboratories
T1 sequence (P00748 373-615 limits assumed): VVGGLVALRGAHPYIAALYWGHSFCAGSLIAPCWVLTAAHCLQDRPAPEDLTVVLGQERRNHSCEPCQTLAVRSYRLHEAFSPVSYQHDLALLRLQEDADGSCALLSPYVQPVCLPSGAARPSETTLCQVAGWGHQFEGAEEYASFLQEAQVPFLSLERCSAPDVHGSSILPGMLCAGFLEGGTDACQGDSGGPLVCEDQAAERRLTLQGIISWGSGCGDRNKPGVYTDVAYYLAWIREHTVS
T1 sequence (P00748 20-372 partner limits assumed): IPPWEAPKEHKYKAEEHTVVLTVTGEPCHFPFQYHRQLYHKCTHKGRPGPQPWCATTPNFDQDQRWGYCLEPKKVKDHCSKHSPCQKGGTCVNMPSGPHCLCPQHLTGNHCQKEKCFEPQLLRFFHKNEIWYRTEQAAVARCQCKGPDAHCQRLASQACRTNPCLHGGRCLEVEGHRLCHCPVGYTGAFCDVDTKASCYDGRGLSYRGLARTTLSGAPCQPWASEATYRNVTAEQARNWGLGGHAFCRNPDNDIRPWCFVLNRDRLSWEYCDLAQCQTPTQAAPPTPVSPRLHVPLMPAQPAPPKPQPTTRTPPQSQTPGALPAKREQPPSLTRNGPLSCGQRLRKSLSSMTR
Briefly: Determination of FXIIa inhibition (in vitro IC50 assay, fluorogenic substrate H-DPro-Phe-Arg-AFC). The following applies: human Factor XIIa; fluorogenic substrate H-DPro-Phe-Arg-AFC at Km concentration; 5 min, 25 °C; class symbols; read-out: Human FXIIa IC50. The class given is biochemical. How it is done:
In vitro inhibition of Factor XIIa was determined using an IC50 assay based on standard literature methods (see e.g Baeriswyl et al., ACS Chem. Biol., 2015, 10 (8) 1861; Bouckaert et al., European Journal of Medicinal Chemistry 110 (2016) 181). Human Factor XIIa (Enzyme Research Laboratories) was incubated at 25 °C with the fluorogenic substrate H-DPro-Phe-Arg-AFC (Peptide Protein Science) and various concentrations of the test compound. Protease activity was measured by monitoring the accumulation of liberated fluorescence from the substrate over 5 min at 25 °C. The linear rate of fluorescence increase per minute was expressed as percentage (%) activity. The Km for the cleavage of the substrate by FXIIa was determined by standard transformation of the Michaelis-Menten equation. The compound inhibitor assays were performed at substrate Km concentration. IC50 values were calculated as the concentration of inhibitor giving 50% inhibition (IC50) of the uninhibited enzyme activity (100%).
As to `Cc1cc(OCC23CN(C4=NCCO4)C(CNc4cccc5c(N)nccc45)(C2)C3)cc(=O)n1C` [Example 97, 4-((1-(((1-Aminoisoquinolin-5-yl)amino)methyl)-2-(4,5-dihydrooxazol-2-yl)-2-azabicyclo[2.1.1]hexan-4-yl)methoxy)-1,6-dimethylpyridin-2(1H)-one], the IC50 lay in the range of 10 to 100 nM.
For `Cn1ccc(OCC23CN(C(=O)N4CCc5ccccc5C4)C(CNc4cccc5c(N)nccc45)(C2)C3)cc1=O` [Example 37, 4-((1-(((1-aminoisoquinolin-5-yl)amino)methyl)-2-(1,2,3,4-tetrahydroisoquinoline-2-carbonyl)-2-azabicyclo[2.1.1]hexan-4-yl)methoxy)-1-methylpyridin-2(1H)-one], the IC50 lay within 100 to 300 nM.
To `Cc1cc(OCC23CN(C(=O)N4CCC5(CCCC5)C4)C(CNc4cccc5c(N)nccc45)(C2)C3)cc(=O)n1C` [Example 85, 4-((1-(((1-aminoisoquinolin-5-yl)amino)methyl)-2-(2-azaspiro[4.4]nonane-2-carbonyl)-2-azabicyclo[2.1.1]hexan-4-yl)methoxy)-1,6-dimethylpyridin-2(1H)-one] belongs 10 to 100 nM.
For the compound `Cc1cc(OCC23CN(C(=O)NC4(c5ccccc5)CC4)C(CNc4cccnc4O)(C2)C3)cc(=O)n1C` [Example 71, 4-(((1,6-Dimethyl-2-oxo-1,2-dihydropyridin-4-yl)oxy)methyl)-1-(((2-hydroxypyridin-3-yl)amino)methyl)-N-(1-phenylcyclopropyl)-2-azabicyclo[2.1.1]hexane-2-carboxamide], the IC50 lay in the range of 40000 to 100000 nM.
With `Nc1nccc2c(NCC34CC(COc5cc6n(c(=O)c5)CCC6)(CN3C(=O)NC3(c5ccccc5)CC3)C4)cccc12` [Example 59, 1-(((1-Aminoisoquinolin-5-yl)amino)methyl)-4-(((5-oxo-1,2,3,5-tetrahydroindolizin-7-yl)oxy)methyl)-N-(1-phenylcyclopropyl)-2-azabicyclo[2.1.1]hexane-2-carboxamide] the figure was 1 to 10 nM; with `Cn1ccc(OCC23CN(C(=O)CC4CCOCC4)C(CNc4cccc5c(N)nccc45)(C2)C3)cc1=O` [Example 9, 4-((1-(((1-aminoisoquinolin-5-yl)amino)methyl)-2-(2-(tetrahydro-2H-pyran-4-yl)acetyl)-2-azabicyclo[2.1.1]hexan-4-yl)methoxy)-1-methylpyridin-2(1H)-one], 10 to 100 nM.
As to `Cn1ccc(OCC23CN(C(=O)CCc4ccc5c(c4)CCO5)C(CNc4cccc5c(N)nccc45)(C2)C3)cc1=O` [Example 14, 4-((1-(((1-aminoisoquinolin-5-yl)amino)methyl)-2-(3-(2,3-dihydrobenzofuran-5-yl)propanoyl)-2-azabicyclo[2.1.1]hexan-4-yl)methoxy)-1-methylpyridin-2(1H)-one], the concentration for half-maximal inhibition (IC50) lay in the range of 10 to 100 nM.
For the compound `Cc1cc(OCC23CN(C(=O)Nc4ccc5c(c4)CCCO5)C(CN(C)c4cccc5c(N)nccc45)(C2)C3)cc(=O)n1C` [Example 104, 1-(((1-aminoisoquinolin-5-yl)(methyl)amino)methyl)-N-(chroman-6-yl)-4-(((1,6-dimethyl-2-oxo-1,2-dihydropyridin-4-yl)oxy)methyl)-2-azabicyclo[2.1.1]hexane-2-carboxamide], the IC50 was in the range of 10 to 100 nM.
`Cc1cc(OCC23CN(C(=O)Nc4ccc5c(c4)OC(F)(F)O5)C(CNc4cccc5c(N)nccc45)(C2)C3)cc(=O)n1C` [Example 92, 1-(((1-aminoisoquinolin-5-yl)amino)methyl)-N-(2,2-difluorobenzo[d][1,3]dioxol-5-yl)-4-(((1,6-dimethyl-2-oxo-1,2-dihydropyridin-4-yl)oxy)methyl)-2-azabicyclo[2.1.1]hexane-2-carboxamide]: the IC50 lay in the range of 10 to 100 nM.
With `C[C@H](NC(=O)N1CC2(COc3ccn(C)c(=O)c3)CC1(CNc1cccc3c(N)nccc13)C2)c1ccccc1` [Example 32, (S)-1-(((1-aminoisoquinolin-5-yl)amino)methyl)-4-(((1-methyl-2-oxo-1,2-dihydropyridin-4-yl)oxy)methyl)-N-(1-phenylethyl)-2-azabicyclo[2.1.1]hexane-2-carboxamide] the figure was 10 to 100 nM.
